US7049321B2, “Methods and pharmaceutical compositions for treatment of central and peripheral nervous system disorders and compounds useful therefor” (Israel Institute for Biological Research, priority 2002, dated 2006)

Assays:
[1] = system: cortical and hippocampal cell culture; test: Protection against NMDA-induced cell death; type: cell-based, rat; conditions: for Neuroprotective potency against 200 μM of NMDA vs MK801: 100 μM agonist
[2] = system: mice with closed head injury; test: Closed head injury in mice, neurological severity score; type: in vivo; conditions: for Balance test (beam walk): 80% in control
Description: Closed head injury (CHI) was induced in mice as described in Chen et al, J Neurotrauma, 15: 231–237, 1998. Neurological severity scores (NSS) were assessed using a battery of 10 parameters (10=worst outcome, 0=normal function). The compounds tested (1 mg compound/kg body weight) vs. placebo-treated animals were injected ip 5 min after CHI vs. placebo-treated animals. Treated mice were evaluated at 1 h, to determine the severity of injury, and at 24 and 48 h to determine recovery. The NSS was as follows: 1. […] 2.

C57BL6J mice = test: Morris water maze in normal hippocampus mice; type: in vivo; conditions: for Training, escape latency: 0.5 and 1 mg/kg i.p. (rivastigmine, nicotine 1 mg/kg); for Training, path length: AF150(S) only the higher dose; for Reversal test, swimming speed: AF150(S)-0.5 mg/kg, AF267B-1 mg/kg, rivastigmine, nicotine
Description: Each group of mice was randomly divided into 7 treatment groups (n=12-14/group). […] All tested compounds and saline were administered once a day for 4 days before starting the behavioral testing, and then for the duration of the 5-day experiment, 30 minutes before testing.
Training: Each mouse was trained for four consecutive days, four trials (one block) per day, in which the platform position remained constant and was located in the center of the southeast quadrant of the pool. Within each block of four trials, each mouse started at each of the starting locations, but the sequence of locations was randomly selected. A trial consisted of placing a mouse by hand into the water facing the wall of the pool at one of four starting locations, north, south, east or west, around the pool's perimeter. Escape latency (the time to find the platform), path length (the distance traveled by the mouse) and speed (the swimming rate of the mouse) were recorded on each trial by the monitoring system.
For each mouse, the path length, escape latency, and swimming speed of the four trials on each of the 4 training days were grouped into blocks (one block for each day). […] Specific comparisons were performed, using the simple main effects contrasts acalysis, which is specifically suited for testing significant interactions.
Transfer test. During trial No. 17, on the fourth day, the platform was entirely removed from the pool (a probe trial). In this trial, the mouse was placed into the water for a limited period (30 s), and its spatial bias was measured by recording the relative distribution of escape latency and path length over the four quadrants of the pool.
Reversal test. During trials 18–21, on the fifth day, the platform position was changed to the northwest quadrant, opposite to the training quadrant. Thus, during reversal learning, the platform location was moved relative to the configuration of objects within the room, but the pool occupied the same place within the room throughout the entire experiment. Testing of the rats and measures taken were the same as in training.
For each mouse, the escape latency, path length and swimming speed of the reversal test (trials No. 18–21) were grouped into one block.

in vivo = conditions: mouse
Description: This calculation was based on the brain weight (2 gr) vs. total plasma volume (14 ml).

[3] = target: Human serum albumin (HSA) (Homo sapiens, UniProt P02768); test: Protein binding, human serum albumin; type: in vitro ADME; conditions: 10 μM
Sequence of Human serum albumin (HSA) (P02768 25-609): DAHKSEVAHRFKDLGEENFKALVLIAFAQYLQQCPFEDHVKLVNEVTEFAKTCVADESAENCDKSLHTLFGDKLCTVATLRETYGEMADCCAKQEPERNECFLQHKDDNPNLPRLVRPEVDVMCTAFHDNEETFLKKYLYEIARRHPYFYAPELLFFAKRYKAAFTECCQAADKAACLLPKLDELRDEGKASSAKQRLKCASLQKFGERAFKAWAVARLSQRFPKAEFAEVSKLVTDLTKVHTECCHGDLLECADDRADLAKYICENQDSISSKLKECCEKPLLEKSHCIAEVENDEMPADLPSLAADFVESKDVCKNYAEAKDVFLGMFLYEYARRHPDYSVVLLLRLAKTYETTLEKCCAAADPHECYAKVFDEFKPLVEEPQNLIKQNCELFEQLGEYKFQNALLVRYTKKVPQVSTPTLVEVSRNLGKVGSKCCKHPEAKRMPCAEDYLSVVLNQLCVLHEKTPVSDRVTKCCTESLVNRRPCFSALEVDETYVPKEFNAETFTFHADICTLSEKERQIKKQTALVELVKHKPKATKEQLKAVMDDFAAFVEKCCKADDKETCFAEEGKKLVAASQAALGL
Description: (§1) Protein binding studies were carried out in human plasma, α1-glycoprotein, human serum albumin (HSA), and Dulbecco's Phosphate Buffered Saline (PBS). AF292 was added to a final concentration of 10 μM. […] (μM) and in human […] (AGP), (see Table 1).

[4] = Protein binding, human plasma; type: in vitro ADME
Description: as §1

[5] = Metabolic stability, monkey liver microsomes; type: in vitro ADME; conditions: read-out: Metabolic Stability T1/2
Description: (§2) The metabolic stability of AF292 was evaluated by monitoring its disappearance while incubated with rat, […], monkey, and human hepatic microsomes. Testosterone, and propranolol were run as assay controls.

M1 mAChR = target: T1, M1 mAChR (Homo sapiens, UniProt P11229); test: Arachidonic acid (AA) release, M1; type: cell-based
T1 construct: expressed in transfected cells

tau proteins = test: tau phosphorylation, AT8 immunoblot; type: cell-based; conditions: 100 μM; to the control level
From the text: Following the experimental design of Sadot et al., J. Neurochem. […] By linking an M1 agonist to an antioxidant moiety tau phophorylation may be decreased, providing a new therapeutic strategy in a variety of CNS disease states due to combined damage due to oxidative stress and tau hyperphosphorylation.

[6] = CNS safety: general observation and Irwin test in rats; type: in vivo, rat
Description: AF292 was evaluated in rodents for possible effects on general behavior and other CNS related pharmacological effects. […] No behavioral or physical signs were observed 24 hours after administration. All rats were retained for 14 days, and throughout this retention period all rats appeared normal.

human M1 = target: T2, human M1 (Homo sapiens, UniProt P11229); test: PI hydrolysis in cells transfected with human M1; type: cell-based; parameters: expressed in transfected cells
T2 sequence (P11229 1-460): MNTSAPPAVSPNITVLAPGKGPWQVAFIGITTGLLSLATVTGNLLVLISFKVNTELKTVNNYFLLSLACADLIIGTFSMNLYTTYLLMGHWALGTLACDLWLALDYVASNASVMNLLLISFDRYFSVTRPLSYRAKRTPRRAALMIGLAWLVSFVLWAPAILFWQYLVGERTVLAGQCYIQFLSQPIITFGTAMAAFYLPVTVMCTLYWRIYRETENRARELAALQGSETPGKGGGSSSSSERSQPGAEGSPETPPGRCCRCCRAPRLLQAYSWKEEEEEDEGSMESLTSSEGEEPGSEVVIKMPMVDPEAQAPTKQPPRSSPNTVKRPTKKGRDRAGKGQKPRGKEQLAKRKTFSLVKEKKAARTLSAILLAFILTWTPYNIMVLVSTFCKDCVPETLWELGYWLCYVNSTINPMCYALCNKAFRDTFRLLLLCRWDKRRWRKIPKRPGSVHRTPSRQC

[7] = Metabolic stability, dog liver microsomes; type: in vitro ADME; conditions: read-out: Metabolic Stability T1/2
Description: as §2

[8] = system: Human α-glycoprotein (AGP); test: Protein binding, human α-glycoprotein; type: in vitro ADME; conditions: 10 μM
Description: as §1

[9] = Pharmacokinetic study in dogs; type: in vivo; conditions: beagle, dog, plasma
From the text: The results of the PK profile of AF292 in rats and Beagle dogs (overnight fasting; drug administered in water solution; gavage) are listed in Table 1.

[10] = 1 mg/kg ip 5 min after CHI, 1 h
[11] = oral, Dogs, extrapolated for 5 mg/kg

In the case of `CC1=NCC2(CCN(C)CC2)S1` [AF150(S), 2,8-Dimethyl-1-thia-3,8-diaza-spiro[4.5]dec-2-ene], the “Prevention of NMDA-induced cell death” value [1] is reported as “effective in prevention of cell death”, the “Neuroprotective potency against 200 μM of NMDA vs MK801” value [1] is reported as “slightly less” and the NSS [2, 10] is reported as 8.00+/−0.21. For the same compound, the NSS ([2]; 1 mg/kg ip, 24 h) was 4.30+/−0.26, the NSS ([2]; 1 mg/kg ip, 48 h) was 2.90+/−0.3 and the “Training, escape latency” value (C57BL6J mice) was “increased the escape latencies”. The “Reversal test, escape latency” value (C57BL6J mice; AF150(S) 0.5 mg/kg) was “impaired the escape latency”, the “Training, path length” value (C57BL6J mice) was “impaired the path length” and the “Reversal test, swimming speed” value (C57BL6J mice) was “significantly decreased”. For the same compound, the “Training, swimming speed” value (C57BL6J mice; mouse, in vivo) was “impaired the swimming speed”, the “Transfer test, spatial bias” value (C57BL6J mice; mouse, in vivo) was “partial spatial bias” and the Tmax (in vivo) was 0.0167 to 0.167 h.
In the case of `CC[C@@H]1SC2(CCN(C)CC2)NC1=O` [AF267B, (S)-2-ethyl-8-methyl-1-thia-4,8-diaza-spiro[4.5]decan-3-one], the “Protein Binding” value [3] is reported as “HSA = 32%”, the fraction unbound at 10 μM [4] is reported as 0.75 and the half-life [5] is reported as 0.45 h. For the same compound, the “Prevention of NMDA-induced cell death” value [1] was “effective in prevention of cell death”, the “Neuroprotective potency against 200 μM of NMDA vs MK801” value [1] was “slightly less” and the “AA release vs. CCh, M1 mAChR” value (M1 mAChR) was 100%. The “tau phosphorylation (AT8)” value (tau proteins) was “induce dephosphorylation of tau proteins”, the NSS [2, 10] was 7.89+/−0.26 and the NSS ([2]; 1 mg/kg ip, 24 h) was 3.67+/−0.24. The NSS ([2]; 1 mg/kg ip, 48 h) was 2.89+/−0.26, the “Balance test (beam walk)” value ([2]; 24 h (3 cm)) was 22% and the “Balance test (beam walk)” value ([2]; 48 h (2 cm)) was 33%. The “IRWIN TEST, duration of signs” value ([6]; 100 mg/kg) was “duration 3–6 hrs.)”, the “IRWIN TEST, onset of signs” value ([6]; 100 mg/kg) was 0.5 h and the “IRWIN TEST, signs” value ([6]; 100 mg/kg p.o.) was 100 mg/kg: abnormalities of carriage, and apathy, decreased corneal reflex, diarrhea, and reduced grooming, increased urination, and salivation, lacrimation & and chromodacryorrhea, reduced locomotor and activity, passivity, decreased respiration, and reduced startle response. For the same compound, the “IRWIN TEST, gross behavior & physiological state” value ([6]; 1 & 10 mg/kg, p.o.) was 1 & 10 no effect on gross behavior, the “Chromodacryorrhea, dose” value ([6]; p.o.) was “Chromodacryorrhea: 100 mg/kg, p.o” and the “Convulsion, dose” value ([6]; p.o.) was “Convulsion: 50 mg/kg, p.o”. The “Gnawing, dose” value ([6]; p.o.) was “Gnawing; 50 mg/kg, p.o”, the “Hypothermia, dose” value ([6]; p.o.) was “Hypothermia: 50 mg/kg, p.o” and the “Lacrimation, dose” value ([6]; p.o.) was “Lacrimation: 50 mg/kg, p.o”. The “Mydriasis, dose” value ([6]; p.o.) was “Mydriasis: 25 mg/kg, p.o”, the “Salivation, dose” value ([6]; p.o.) was “Salivation: 40 mg/kg, p.o” and the “Sedation, dose” value ([6]; p.o.) was “Sedation: 100 mg/kg, p.o”. The “Dose at which salivation and lacrimation begin” value ([6]; po, first hour) was “about 40 mg/kg”, the “PI turnover vs. carbachol, M1” value (human M1) was roughly 66% and the half-life [7] was greater than 1.67 h. For the same compound, the “Training, escape latency” value (C57BL6J mice) was “did not significantly affect”, the “Training, path length” value (C57BL6J mice) was “neither AF267B nor rivastigmine had any effect” and the “Reversal test, swimming speed” value (C57BL6J mice) was “significantly decreased”. The “Training, swimming speed” value (C57BL6J mice; mouse, in vivo) was “no such effect”, the MRT (in vivo) was 2.13 h and the Tmax (in vivo) was 0.333 to 0.5 h. The “Protein Binding” value [8] was “AGP = 5.7%”, the AUC(0-inf) [9, 11] was 2.76 µg·h/mL and the Cmax [9, 11] was 1.08 µg/mL. The AUC(0-inf) ([9]; po, Dogs., 1 mg/kg) was 0.552 µg·h/mL, the Cmax ([9]; po, Dogs., 1 mg/kg) was 0.257 µg/mL and the MRT ([9]; po, Dogs., 1 mg/kg) was 1.96 h. The Tmax ([9]; po, Dogs., 1 mg/kg) was 0.58 to 0.75 h and the half-life ([9]; po, Dogs., 1 mg/kg) was 1.33 h.
For `CC[C@@H]1SC2(CCNCC2)NC1=O` [AF292, (S)-2-Ethyl-1-thia-4,8-diaza-spiro[4.5]decan-3-one], the “Protein Binding” value [3] was “Human serum albumin (HSA) = 22%”, the fraction unbound at 10 μM [4] was 0.65 and the half-life [5] was 1.23 h. The “AA release vs. CCh, M1 mAChR” value (M1 mAChR) was greater than 88%, the “tau phosphorylation (AT8)” value (tau proteins) was “induce dephosphorylation of tau proteins” and the “Physical or behavioral signs (Irwin test)” value ([6]; 1, 10, 30, 60, 100 mg/kg, p.o.) was “No significant physical or behavioral signs”. The “PI turnover vs. carbachol, M1” value (human M1) was roughly 35%, the half-life [7] was greater than 1.67 h and the “Protein Binding” value [8] was 0%. For the same compound, the AUC(0-inf) ([9]; po, Dogs, 5 mg/kg) was 4.65 µg·h/mL, the Cmax ([9]; po, Dogs, 5 mg/kg) was 1.19 µg/mL and the MRT ([9]; po, Dogs, 5 mg/kg) was 4.85 h. It also gave a Tmax ([9]; po, Dogs, 5 mg/kg) of 0.8 h and a half-life ([9]; po, Dogs, 5 mg/kg) of 2.04 h.
